The data set can be described thus: Sumatriptan pharmacokinetics after oral gavage in cocoa butter with or without DDM. It counts as in vivo, beagle dogs. The conditions noted are these: 25 mg in cocoa butter with 1% DDM vs no-DDM control, dog, 0-180 min.

These results are taken from patent publication US20130224300A1, “COMPOSITIONS AND METHODS THEREOF FOR ORAL ADMINISTRATION OF DRUGS” (priority 2011, published 2013).

Molecules are shown by their SMILES.

Method: The plot depicts serum concentrations of sumatriptan in a canine at zero through 180 min. following oral delivery (by gavage) of 25 mg sumatriptan in 1.0% DDM in a non-aqueous solution comprising cocoa butter. The solid circles represent plasma sumatriptan concentrations for doses not containing DDM (the control) and the solid squares show plasma sumatriptan concentrations for the sumatriptan doses containing DDM.
Sumatriptan, 2.5 g, was dissolved in 100 mL of cocoa butter at 45 deg. […] (in the liquid state) resulting in a solution having a sumatriptan concentration of 25 mg/mL. The solution was divided into two equal 50 mL portions. To one was added 500 mg DDM. Both solutions were kept at 45 degrees C. until the DDM is seen to have completely dissolved upon visual inspection yielding a 1% DDM solution in cocoa butter. The solutions were then cooled to about 4-10 degrees C. to allow the cocoa butter to solidify. One mL portions of the solidified cocoa butter-sumatriptan-DDM solution and one mL portions of the cocoa butter-sumatriptan (no DDM) control were formed into spherical balls and administered to beagle dogs by oral gavage. Blood samples were collected at timed intervals and plasma sumatriptan concentrations measured using a standard clinical assay.

For the molecule `CNS(=O)(=O)Cc1ccc2[nH]cc(CCN(C)C)c2c1` [sumatriptan], the “increase in oral absorption based upon the relative AUC's” value is recorded as approximately 19%.
